Measurements as given in patent US20240383915A1, “OXAZEPINE COMPOUNDS AND USES THEREOF IN THE TREATMENT OF CANCER” (Genentech, Inc., priority 2021, published 2024).

Tests used:
[1] = molecular target: Raf-RBD/KRAS G12D interaction (Homo sapiens (Human), UniProt P01116, G12D); assay: KRAS G12D NanoBRET assay; type: cell-based; details: HCT116
Experimental: KRAS G12D NanoBRET Assay. Cellular target engagement was assessed by monitoring inhibition of the Raf-RBD/KRAS G12D interaction in a NanoBRET™ assay (Promega). […] Cells were seeded into 384-well white tissue culture-treated assay plates in 40 μL culture medium (RPMI-1640 with 10% fetal bovine serum, 2 mM glutamine, […] puromycin, and 4 ng/mL blasticidin) with doxycycline to induce KRAS G12D-nanoluciferase expression over 20-24 h at 37° C., 5% CO2. The culture medium was then removed and replaced with assay medium (Opti-MEM® with 4% fetal bovine serum) and 0.1 μM HaloTag618 ligand. During the subsequent 4 h incubation at 37° C., 5% CO2, the HaloTag618 ligand binds to the Halotag-labeled KRAS G12D. Compounds solubilized in DMSO were then added as dilution series to the wells in a total volume of 160 nL (0.4% DMSO final), and the plates were incubated overnight at 37° C., 5% CO2. In the final step, 10 μL NanoGlo substrate in Opti-MEM was added to each well, and the emission read at 460 nm (luciferase signal) and 610 nm (NanoBRET signal) on an EnVision plate reader (PerkinElmer). The Raf-RBD/KRAS G12D interaction results in bioluminescence resonance energy transfer (BRET) from the product of the luciferase reaction in the vicinity of the Raf-RBD to the HaloTag ligand acceptor on the KRAS G12D and generates the NanoBRET signal. Binding of compounds to KRAS G12D and disruption of its interaction with Raf-RBD results in reduction of this signal. The luciferase signal and NanoBRET signal for compound wells were divided by the average corresponding signal for DMSO control wells. Then the NanoBRET ratio was calculated by dividing the control-adjusted NanoBRET signal by the similarly adjusted luciferase signal. […] The normalized NanoBRET ratio results were plotted against compound concentration, and the data fit to a 4-parameter Hill equation to determine the IC50 values.

KRAS G12D = KRAS G12D (Homo sapiens (Human), UniProt P01116, G12D); assay: KRas (G12D) GDP HTRF (BODIPY-GDP exchange TR-FRET); type: biochemical
Experimental: (§1) KRAS Biochemical Assay—BODIPY-GDP Exchange TR-FRET. Biochemical compound potencies were assessed by evaluating inhibition of SOS1-mediated nucleotide exchange in KRAS G12D. The SOS1-promoted exchange of fluorescently-labeled GDP (BODIPY-GDP) was monitored by time-resolved fluorescence resonance energy transfer (TR-FRET). Compounds solubilized in DMSO were dispensed as concentration series into 384-well white assay plates. A preformed complex of biotin-tagged recombinant human KRAS (1.5 nM mutant G12D or wild type) and 0.15 nM terbium-labeled streptavidin (CisBIO) prepared in 10 μL/well assay buffer (20 mM HEPES, pH 7.5, 50 mM NaCl, 10 mM MgCl2, 0.01% Tween-20 and 1 mM dithiothreitol) was added and allowed to incubate for 10-minutes. The reaction was initiated with the addition of 5 μL of 3 nM recombinant human SOS1 and 300 nM BODIPY-GDP in assay buffer. After a 60-minute incubation, the fluorescence was measured with excitation at 337 nm and emission at 490 and 520 nm. The TR-FRET ratio was determined as the fluorescence at 520 nm divided by the fluorescence at 490 nm multiplied by 10,000. […] The normalized TR-FRET results were plotted against compound concentration, and the data fit to a 4-parameter Hill equation to determine the IC50 values.

KRAS wild type = KRAS wild type (Homo sapiens (Human), UniProt P01116); assay: KRas (wt) GDP HTRF (BODIPY-GDP exchange TR-FRET); type: biochemical
Experimental: as §1

[2] = test system: KRAS G12D human pancreatic cell lines (AsPC-1 and SW1990); assay: KRAS 3D-cell proliferation assay, CTG panel (G12D); type: cell-based; details: 168 h, CellTiter-Glo 3D, 7 days
Experimental: (§2) KRAS 3D-Cell Proliferation Assays. Cellular potencies of compounds were assessed by evaluating inhibition of proliferation in 3D cultures of homozygous mutant KRAS G12D human pancreatic cell lines (AsPC-1 and SW1990) as compared to a KRAS wild type human lung adenocarcinoma cell line (PC-9). Cells were seeded into 384-well black round-bottom, ultra-low attachment assay plates in 50 μL cell growth medium (RPMI-1640 with 10% fetal bovine serum and 2 mM L-glutamine). After overnight incubation at 37° C. and 5% CO2, compounds solubilized in DMSO were added as dilution series to the wells in a total volume of 150 nL (0.3% DMSO final). The cells were incubated for 7 days at 37° C. and 5% CO2. Cell proliferation was quantitated by addition of 40 μL/well of CellTiter-Glo® 3D (Promega). This reagent in combination with mechanical disruption releases the cellular ATP to promote activity in a luciferase-based enzyme/substrate chemiluminescent detection system. After a 25-minute incubation under ambient conditions with shaking and an additional 10 minutes without shaking, the contents of the wells were mixed by pipetting up and down repeatedly to disrupt the spheroids, and then the plates were centrifuged to remove bubbles. The plates were incubated for another 15 minutes under ambient conditions, and the luminescence read on a plate reader (e.g. EnVision [PerkinElmer]). […] The normalized luminescence results were plotted against compound concentration, and the data fit to a 4-parameter Hill equation to determine the IC50 values.

[3] = test system: KRAS wild type human lung adenocarcinoma cell line (PC-9); assay: KRAS 3D-cell proliferation assay, CTG panel non G12D; type: cell-based; details: 168 h, CellTiter-Glo 3D, 7 days
Experimental: as §2

Raf-RBD/KRAS G12D interaction, sequence (P01116-2 other isoform, or with tags, fused parts or gaps G12D): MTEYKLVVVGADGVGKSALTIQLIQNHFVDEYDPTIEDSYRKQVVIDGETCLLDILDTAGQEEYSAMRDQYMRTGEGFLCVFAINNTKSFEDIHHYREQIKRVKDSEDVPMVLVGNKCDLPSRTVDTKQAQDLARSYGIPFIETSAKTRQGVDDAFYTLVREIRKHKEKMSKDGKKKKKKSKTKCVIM
KRAS G12D, sequence (P01116-2 other isoform, or with tags, fused parts or gaps G12D): as above
KRAS wild type, sequence (P01116-2 other isoform, or with tags, fused parts or gaps): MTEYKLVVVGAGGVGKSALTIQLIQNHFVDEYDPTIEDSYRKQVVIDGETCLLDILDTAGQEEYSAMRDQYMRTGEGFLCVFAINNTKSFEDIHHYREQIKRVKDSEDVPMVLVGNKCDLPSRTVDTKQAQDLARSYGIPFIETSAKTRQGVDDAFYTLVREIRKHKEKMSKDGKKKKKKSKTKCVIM

In the case of `Cc1cc(N)nc(-c2cc3ncnc4c3c(c2Cl)OC[C@H](CC#N)N4C2CCNC2)c1C(F)(F)F` (single isomer, unassigned) [Example 508], the IC50 [1] is reported as at least 10 µM, the IC50 (KRAS G12D) is reported as 472 nM and the IC50 (KRAS wild type) is reported as 8.11 µM.
In the case of `Cc1cc(N)nc(-c2cc3ncnc4c3c(c2Cl)OC[C@H](CC#N)N4C2CCNC2)c1C(F)(F)F` (single isomer, unassigned) [Example 507], the IC50 [1] is reported as at least 10 µM, the IC50 (KRAS G12D) is reported as 276 nM and the IC50 (KRAS wild type) is reported as 8.65 µM.
In the case of `Cc1cc(N)nc(-c2cc3ncnc4c3c(c2Cl)OCCN4C2CCNC2)c1C(F)(F)F` (stereo not drawn) [Example 506], the IC50 [1] is reported as at least 10 µM, the IC50 (KRAS G12D) is reported as 2400 nM and the IC50 (KRAS wild type) is reported as 55 µM.
`Cc1cc(N)nc(-c2cc3ncnc4c3c(c2Cl)OCCN4C2CCNC2)c1C(F)(F)F` (stereo not drawn) [Example 505] gave an IC50 [1] of at least 10 µM, an IC50 (KRAS G12D) of 1730 nM and an IC50 (KRAS wild type) of 66.4 µM.
With `Cc1cc(N)nc(-c2cc3ncnc4c3c(c2Cl)OCCN4CCN(C)CCO)c1C(F)(F)F` [Example 502, 2-((2-(9-(6-Amino-4-methyl-3-(trifluoromethyl)pyridin-2-yl)-8-chloro-5,6-dihydro-4H-[1,4]oxazepino[5,6,7-de]quinazolin-4-yl)ethyl)(methyl)amino)ethan-1-ol] the IC50 [1] was at least 10 µM, the IC50 [2] was 9.65 µM and the IC50 [3] was 7.88 µM. The IC50 (KRAS G12D) was 2770 nM and the IC50 (KRAS wild type) was 71.4 µM.
For `Cc1cc(N)nc(-c2cc3ncnc4c3c(c2Cl)OCCN4CCN2CCOCC2)c1C(F)(F)F` [Example 504], the IC50 [1] was at least 10 µM, the IC50 [2] was 14.9 µM and the IC50 [3] was 18.5 µM. For the same molecule, the IC50 (KRAS G12D) was 3460 nM and the IC50 (KRAS wild type) was 15.1 µM.
With `C=C1CN2CCC[C@@]2(COc2nc3c4c(c(Cl)c(-c5nc(N)cc(C)c5C(F)(F)F)c(F)c4n2)OCCN3CCN(C)C)C1` (single isomer, unassigned) [Example 513] the IC50 [1] was 2.58 µM, the IC50 [2] was 1.08 µM and the IC50 [3] was 2.29 µM. The IC50 (KRAS G12D) was 1.55 nM and the IC50 (KRAS wild type) was 0.0108 µM.
Work on `C=C1CN2CCC[C@@]2(COc2nc3c4c(c(Cl)c(-c5nc(N)cc(C)c5C(F)(F)F)cc4n2)OCCN3CCN(C)C)C1` [Example 511] yielded an IC50 [1] of 8.05 µM, an IC50 [2] of 2.24 µM and an IC50 [3] of 2.96 µM. For the same molecule, the IC50 (KRAS G12D) was 6.07 nM and the IC50 (KRAS wild type) was 0.0484 µM.
For `Cc1cc(N)nc(-c2cc3ncnc4c3c(c2Cl)OCCN4CCN(C)C)c1C(F)(F)F` [Example 501, 6-(8-Chloro-4-(2-(dimethylamino)ethyl)-5,6-dihydro-4H-[1,4]oxazepino[5,6,7-de]quinazolin-9-yl)-4-methyl-5-(trifluoromethyl)pyridin-2-amine], the IC50 [1] was at least 10 µM, the IC50 (KRAS G12D) was 4160 nM and the IC50 (KRAS wild type) was 109 µM.
Molecule `C=C1CN2CCC[C@@]2(COc2nc3c4c(c(F)c(-c5nc(N)cc(C)c5C(F)(F)F)c(F)c4n2)OCCN3CCN(C)C)C1` (single isomer, unassigned) [Example 524] has an IC50 [1] of at least 10 µM, an IC50 (KRAS G12D) of 480 nM and an IC50 (KRAS wild type) of 2.68 µM.
For `C=C1CN2CCC[C@@]2(COc2nc3c4c(c(Cl)c(-c5nc(N)cc(C)c5C(F)(F)F)c(F)c4n2)OCCN3CCN(C)C)C1` (single isomer, unassigned) [Example 514], the IC50 [1] was at least 10 µM, the IC50 (KRAS G12D) was 817 nM and the IC50 (KRAS wild type) was 4.12 µM.
In the case of `C=C1CN2CCC[C@@]2(COc2nc3c4c(c(F)c(-c5nc(N)cc(C)c5C(F)(F)F)c(F)c4n2)OCCN3CCN(C)C)C1` (single isomer, unassigned) [Example 523], the IC50 [1] is reported as at least 10 µM, the IC50 [3] is reported as 7.7 µM and the IC50 (KRAS G12D) is reported as 11.9 nM. For the same molecule, the IC50 (KRAS wild type) was 0.088 µM.
